Columns and labels:
Type in all cases: biochemical
PYR1-HAB1 = target: T1, PYR1-HAB1 (Arabidopsis thaliana, UniProt O49686); test: PP2C activity assay, PYR1-HAB1 inhibition; conditions: for activity at 0.2 µM: 200 nM test compound, 100 nM HAB1 PP2C, 200 nM receptor, read-out: % Inhibition of PYR/PYL-HAB1 at 200 nM: PYR1; for IC50: dose response in triplicate, non-linear regression
T1 construct: 6xHis (N); made in house; host or cells: E. coli BL21[DE3]pLysS (stated for GST-HAB1)
T1 sequence (O49686 1-191): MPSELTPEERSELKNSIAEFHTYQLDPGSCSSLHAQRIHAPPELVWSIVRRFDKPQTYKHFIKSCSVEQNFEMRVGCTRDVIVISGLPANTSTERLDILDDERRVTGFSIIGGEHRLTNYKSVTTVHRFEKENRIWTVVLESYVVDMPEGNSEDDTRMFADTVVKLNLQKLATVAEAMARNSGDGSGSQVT
T1 sequence (Q9CAJ0 23-511 partner): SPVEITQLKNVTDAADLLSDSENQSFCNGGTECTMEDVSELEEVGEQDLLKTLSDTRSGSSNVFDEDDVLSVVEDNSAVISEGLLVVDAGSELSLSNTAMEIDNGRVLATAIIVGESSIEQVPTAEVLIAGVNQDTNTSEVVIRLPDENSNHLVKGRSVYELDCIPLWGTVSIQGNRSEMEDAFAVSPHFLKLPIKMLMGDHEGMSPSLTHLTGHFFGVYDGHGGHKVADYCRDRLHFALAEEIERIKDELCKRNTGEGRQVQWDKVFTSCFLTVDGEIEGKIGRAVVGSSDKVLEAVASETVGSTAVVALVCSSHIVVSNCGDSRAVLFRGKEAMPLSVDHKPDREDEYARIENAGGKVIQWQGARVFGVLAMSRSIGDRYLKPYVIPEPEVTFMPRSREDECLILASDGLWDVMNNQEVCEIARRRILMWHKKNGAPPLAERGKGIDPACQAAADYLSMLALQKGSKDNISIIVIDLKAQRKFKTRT
Excerpt: (§1) The protein HAB1, a type 2 protein phosphatase (PP2C), is inhibited by PYR/PYL proteins in dependence of abscisic acid or other agonists. The potency of an agonist correlates with the level of inhibition of the PP2C, and therefore the IC50 (receptor-HAB1) can be used to compare the relative activity of different chemical analogues. Since inhibition of PP2C correlates to inhibition of seed-germination and increase in plant water-use efficiency, it serves as a powerful tool to quantify biological potential of a chemical acting as an analogue of abscisic acid.
(§2) HAB1 and PYL proteins were expressed and purified as described in Park et al. ((2009) Science 324(5930):1068-1071), with minor modifications. GST-HAB1 was produced by expression in BL21[DE3]pLysS host cells with an expression clone containing the HAB1 cDNA cloned into pGex-2T. Transformed E. coli cells were pre-cultured overnight, transferred to LB medium and cultured at 30° C. to culture A600 of ˜0.5 OD units. The culture was then cooled on ice and MnCl2 added to 4 mM and IPTG added to 0.3 mM. After 16 hours incubation at 15° C., cells were harvested and recombinant proteins were purified on glutathione agarose as described in Park et al. To obtain 6×His-PYL receptor fusion proteins, we used expression constructs previously described by Okamoto et al. 2013, (PNAS 110(29): 12132-12137).
(§3) PP2C activity assays using recombinant receptors and PP2Cs were carried out as follows: purified proteins were pre-incubated in 160 μl assay buffer containing (100 mM Tris-HCl-pH7.9, 100 mM NaCl, 3 μg bovine serum albumin and 0.1% 2-mercaptoethanol), 1 mM MnCl2 with carrier solvent (DMSO), quinabactin or quinabactin analogs (compounds of the present invention) for 30 minutes at room temperature. Reactions were started by adding 40 μL of a reaction solution containing 25 mM 4-nitrophenyl phosphate in assay buffer, after which absorbance measurements were immediately collected (405 nm) using a Wallac plate reader. […] Inhibition is indicated by reduced PP2C activity, which is expressed as a percentage of the control PP2C activity values that were obtained from assays containing carrier solvent instead but no test compound.

PYL1-HAB1 = target: T2, PYL1-HAB1 (Arabidopsis thaliana, UniProt Q8VZS8); test: PP2C activity assay, PYL1-HAB1 inhibition; conditions: 200 nM test compound, 100 nM HAB1 PP2C, 200 nM receptor; read-out: % Inhibition of PYR/PYL-HAB1 at 200 nM: PYL1
T2 construct: 6xHis (N); made in house; host or cells: E. coli BL21[DE3]pLysS (stated for GST-HAB1)
T2 sequence (Q8VZS8 1-221): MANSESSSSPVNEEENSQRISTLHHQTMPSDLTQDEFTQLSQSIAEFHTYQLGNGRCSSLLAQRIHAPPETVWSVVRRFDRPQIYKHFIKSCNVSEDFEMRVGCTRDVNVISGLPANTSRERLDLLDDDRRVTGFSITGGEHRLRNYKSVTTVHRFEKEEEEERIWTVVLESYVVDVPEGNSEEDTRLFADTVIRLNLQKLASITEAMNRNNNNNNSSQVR
T2 sequence (Q9CAJ0 23-511 partner): T1 sequence (Q9CAJ0 23-511 partner)
Excerpt: as §1, §2
PP2C activity assays using recombinant receptors and PP2Cs were carried out as follows: purified proteins were pre-incubated in 160 μl assay buffer containing (100 mM Tris-HCl-pH7.9, 100 mM NaCl, 3 μg bovine serum albumin and 0.1% 2-mercaptoethanol), 1 mM MnCl2 with carrier solvent (DMSO), quinabactin or quinabactin analogs (compounds of the present invention) for 30 minutes at room temperature. Reactions were started by adding 40 μL of a reaction solution containing 25 mM 4-nitrophenyl phosphate in assay buffer, after which absorbance measurements were immediately collected (405 nm) using a Wallac plate reader. Reactions contained 100 nM HAB1 PP2C and 200 nM receptor and 200 nM test compound. Inhibition is indicated by reduced PP2C activity, which is expressed as a percentage of the control PP2C activity values that were obtained from assays containing carrier solvent instead but no test compound.

PYL2-HAB1 = target: T3, PYL2-HAB1 (Arabidopsis thaliana, UniProt O80992); test: PP2C activity assay, PYL2-HAB1 inhibition; conditions: for percent inhibition at 0.2 µM: 200 nM test compound, 100 nM HAB1 PP2C, 200 nM receptor, read-out: % Inhibition of PYR/PYL-HAB1 at 200 nM: PYL2; for IC50: dose response in triplicate, non-linear regression
T3 construct: 6xHis (N); made in house; host or cells: E. coli BL21[DE3]pLysS (stated for GST-HAB1)
T3 sequence (O80992 1-190): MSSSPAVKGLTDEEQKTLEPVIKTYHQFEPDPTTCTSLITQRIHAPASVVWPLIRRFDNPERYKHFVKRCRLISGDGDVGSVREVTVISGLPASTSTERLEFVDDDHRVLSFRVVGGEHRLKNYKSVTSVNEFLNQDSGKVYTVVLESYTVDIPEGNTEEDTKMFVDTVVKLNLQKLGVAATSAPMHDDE
T3 sequence (Q9CAJ0 23-511 partner): T1 sequence (Q9CAJ0 23-511 partner)
Excerpt: as §1, §2, §3

SMILES | activity at 0.2 µM (PYR1-HAB1) [%] | IC50 (PYR1-HAB1) [nM] | activity at 0.2 µM (PYL1-HAB1) [%] | percent inhibition at 0.2 µM (PYL2-HAB1) [%] | IC50 (PYL2-HAB1) [nM]
CCCN1C(=O)CCc2cc(NS(=O)(=O)Cc3ccc(C#N)cc3F)cc(F)c21 [HQ11] | 28.8 | 61.2 | 27.9 | 73.5 | 317
CCCN1C(=O)CCc2cc(NS(=O)(=O)Cc3ccc(Cl)cc3)cc(F)c21 [HQ18] | 35 | 63.3 | 34.2 | 46.7 | 102
CCCN1C(=O)CCc2cc(NS(=O)(=O)Cc3ccccc3C#N)cc(F)c21 [HQ12] | 106 |  | 82.4 | 94.5 | 
CCCN1C(=O)CCc2cc(NS(=O)(=O)Cc3cccc(C(F)(F)F)c3)cc(F)c21 [HQ17] | 104 |  | 88.1 | 88.2 | 
CCCN1C(=O)CCc2cc(NS(=O)(=O)Cc3ccc(F)cc3F)cc(F)c21 [HQ4] | 61.5 |  | 46.1 | 69.3 | 
CCCN1C(=O)CCc2cc(NS(=O)(=O)Cc3ccc(C(=O)OC)cc3)cc(F)c21 [HQ14] | 62.6 |  | 78.9 | 91.8 | 
CCCN1C(=O)CCc2cc(NS(=O)(=O)Cc3ccc(OC(F)(F)F)cc3)cc(F)c21 [HQ15] | 54.8 |  | 47.6 | 70.1 | 
CCCN1C(=O)CCc2cc(NS(=O)(=O)Cc3cccc(Cl)c3)cc(F)c21 [HQ27] | 90 |  | 79.8 | 88 | 
CCCN1C(=O)CCc2cc(NS(=O)(=O)Cc3ccc(Br)cc3)cc(F)c21 [HQ25] | 33.8 | 75 | 20.8 | 42.8 | 77
CCCN1C(=O)CCc2cc(NS(=O)(=O)Cc3ccc(C)cc3)cc(Cl)c21 [HQ2] | 37.9 | 47.7 | 20.3 | 38.9 | 74
CCCN1C(=O)CCc2cc(NS(=O)(=O)Cc3ccc(F)cc3Br)cc(F)c21 [HQ8] | 107 |  | 87.4 | 92 | 
CCCN1C(=O)CCc2cc(NS(=O)(=O)Cc3ccc(C)cc3)cc(F)c21 [HQ1] | 14.7 | 37.5 | 11.8 | 28 | 42
CCCN1C(=O)CCc2cc(NS(=O)(=O)Cc3cc(F)ccc3F)cc(F)c21 [HQ6] | 57.9 |  | 35.1 | 57.4 | 
CCCN1C(=O)CCc2cc(NS(=O)(=O)Cc3ccccc3Br)cc(F)c21 [HQ20] | 97.4 |  | 84.7 | 94.1 | 
CCCN1C(=O)CCc2cc(NS(=O)(=O)Cc3ccc(Cl)cc3Cl)cc(F)c21 [HQ22] | 91.5 |  | 70.6 | 86.3 | 
CCCN1C(=O)CCc2cc(NS(=O)(=O)Cc3ccccc3F)cc(F)c21 [HQ3] | 65.7 |  | 46.7 | 78.3 | 
CCCN1C(=O)CCc2cc(NS(=O)(=O)Cc3ccc(Br)cc3F)cc(F)c21 [HQ5] | 42.9 |  | 18.2 | 51.8 | 
CCCN1C(=O)CCc2cc(NS(=O)(=O)Cc3cccc(F)c3)cc(F)c21 [HQ21] | 62.4 |  | 48.2 | 63.7 | 
CCCN1C(=O)CCc2cc(NS(=O)(=O)Cc3ccc(C#N)cc3)cc(F)c21 [HQ10] | 39.8 |  | 44.3 | 77.2 | 
CCCN1C(=O)CCc2cc(NS(=O)(=O)Cc3cccc(F)c3F)cc(F)c21 [HQ7] | 53.9 |  | 31 | 67.4 | 
CCCN1C(=O)CCc2cc(NS(=O)(=O)Cc3ccc(F)cc3Cl)cc(F)c21 [HQ13] | 110 |  | 88.2 | 94.1 | 

— patent publication US11332443B2, “Derivatives of halo quinabactin” (THE REGENTS OF THE UNIVERSITY OF CALIFORNIA, priority 2015, dated 2022)
